Common to all, as to format: cell-based
One series concerns HIV-1 (NL4-3). As to the kind of experiment: HIV-1 (wild type) inhibitory effect, decrease in viral cytopathic effect (CPE) in MT-4 cells. The settings on record: Human immunodeficiency virus 1, NL43, MT4, 144 h; NL4-3 strain, MT-4 host cells, 6 days incubation, CPE reduction. Here is the method: (§1) In order to determine the HIV-1 (Wild type) inhibitory effect of compounds of the present invention, a test was conducted as follows. The host cell was MT-4 cells and the virus strain was NL4-3 strain of HIV-1. The virus and cells were mixed in the presence of the compounds of the present invention, followed by incubation for 6 days. The antiviral effect was measured as a percentage decrease in viral cytopathic effect (CPE), and the cytotoxicity of the compounds was evaluated by MTS (CellTiter® 96 Reagent, Promega, Madison WI) dye reduction assay. 1.
(Protection from cytopathic effect is a common read-out in antiviral testing.)

The nature of series [1]: Cytotoxicity, MTS dye reduction assay. The conditions noted are these: human; MT-4 cells, MTS dye reduction, 6 days incubation; read-out: CC50, HIV-1(NL4-3) in MT-4 Cells. Here is the method: as §1
The next series has as its system MT-4 cells. Put plainly: Cytotoxicity, MTS dye reduction assay. Here is the method: as §1
For orientation: Tetrazolium dyes change colour on reduction, which living cells bring about.

Data on 16 molecules can be found in patent US12540136B2, “Pyrrolopyridine derivative and use thereof” (ST PHARM CO., LTD., priority 2020, dated 2026).

SMILES strings stand for the structures. pEC50: −log10 of the molar value. Read-outs that look alike come from different tables or passages of the source.

As a reminder, the pEC50 is the EC50 on a negative log10 scale, so that one unit is a factor of ten. Lower therefore signals a large EC50. As a reminder, the CC50 is the concentration that lowers cell viability or growth by half. `Cc1nc2c(c(C)c(C)n2Cc2cnn(C)c2)c(-c2ccc(Cl)cc2)c1[C@@H](C#N)OC(C)(C)C` [Example 6, (S)-2-(tert-butoxy)-2-(4-(4-chlorophenyl)-2,3,6-trimethyl-1-((1-methyl-1H-pyrazol-4-yl)methyl)-1H-pyrrolo[2,3-b]pyridin-5-yl)acetonitrile] had a pEC50 with HIV-1 (NL4-3) below 5.00. In addition, the CC50 at 6 days in series [1] was above 10 µM.

For `CNC(=O)[C@@H](OC(C)(C)C)c1c(C)nc2c(c(C)c(C)n2Cc2cnn(C)c2)c1-c1ccc(Cl)cc1` [Example 8, (S)-2-(tert-butoxy)-2-(4-(4-chlorophenyl)-2,3,6-trimethyl-1-((1-methyl-1H-pyrazol-4-yl)methyl)-1H-pyrrolo[2,3-b]pyridin-5-yl)-N-methylacetamide], the CC50 at 6 days in series [1] was 4.98 µM.

Regarding `COCCOCCOC(=O)[C@@H](OC(C)(C)C)c1c(C)nc2c(c(C)c(C)n2Cc2cnn(C)c2)c1-c1ccc(Cl)cc1` [Example 16, 2-(2-Methoxyethoxy)ethyl (S)-2-(tert-butoxy)-2-(4-(4-chlorophenyl)-2,3,6-trimethyl-1-((1-methyl-1H-pyrazol-4-yl)methyl)-1H-pyrrolo[2,3-b]pyridin-5-yl)acetate], in the series with HIV-1 (NL4-3), the pEC50 is below 5.00. For the same molecule, the CC50 at 6 days in series [1] is above 10 µM.

On to `COC(=O)OCOC(=O)[C@@H](OC(C)(C)C)c1c(C)nc2c(c(C)c(C)n2Cc2cnn(C)c2)c1-c1ccc(Cl)cc1` [Example 15, ((Methoxycarbonyl)oxy)methyl (S)-2-(tert-butoxy)-2-(4-(4-chlorophenyl)-2,3,6-trimethyl-1-((1-methyl-1H-pyrazol-4-yl)methyl)-1H-pyrrolo[2,3-b]pyridin-5-yl)acetate], for which the pEC50 in the series with HIV-1 (NL4-3) is 7.50. Moreover, the half-maximal cytotoxic concentration (CC50) at 6 days in series [1] is above 10 µM.

In the series with HIV-1 (NL4-3), `Cc1nc2c(c(C)c(C)n2CC2CCO2)c(-c2ccc(Cl)cc2)c1[C@H](OC(C)(C)C)C(=O)OCc1oc(=O)oc1C` (stereo partly drawn) [Example 2, (5-Methyl-2-oxo-1,3-dioxol-4-yl)methyl (2S)-2-(tert-butoxy)-2-(4-(4-chlorophenyl)-2,3,6-trimethyl-1-(oxetan-2-ylmethyl)-1H-pyrrolo[2,3-b]pyridin-5-yl)acetate] had a pEC50 of 6.92. In addition, the CC50 at 6 days in series [1] is above 10 µM.

The molecule `CCCCCCCCCCCCCOC(=O)[C@@H](OC(C)(C)C)c1c(C)nc2c(c(C)c(C)n2Cc2cnn(C)c2)c1-c1ccc(Cl)cc1` [Example 1, Tridecyl (S)-2-(tert-butoxy)-2-(4-(4-chlorophenyl)-2,3,6-trimethyl-1-((1-methyl-1H-pyrazol-4-yl)methyl)-1H-pyrrolo[2,3-b]pyridin-5-yl)acetate] gave a pEC50 in the series with HIV-1 (NL4-3) below 5.00. For the same molecule, in series [1], the CC50 at 6 days was above 10 µM.

For the molecule `CONC(=O)[C@@H](OC(C)(C)C)c1c(C)nc2c(c(C)c(C)n2Cc2cnn(C)c2)c1-c1ccc(Cl)cc1` [Example 9, (S)-2-(tert-butoxy)-2-(4-(4-chlorophenyl)-2,3,6-trimethyl-1-((1-methyl-1H-pyrazol-4-yl)methyl)-1H-pyrrolo[2,3-b]pyridin-5-yl)-N-methoxyacetamide], the CC50 at 6 days in series [1] stood at 8.89 µM.

Molecule `Cc1nc2c(c(C)c(C)n2Cc2cnn(C)c2)c(-c2ccc(Cl)cc2)c1[C@H](OC(C)(C)C)C(=O)OCc1oc(=O)oc1C` [Example 4, (5-Methyl-2-oxo-1,3-dioxol-4-yl)methyl (S)-2-(tert-butoxy)-2-(4-(4-chlorophenyl)-2,3,6-trimethyl-1-((1-methyl-1H-pyrazol-4-yl)methyl)-1H-pyrrolo[2,3-b]pyridin-5-yl)acetate] gave a pEC50 with HIV-1 (NL4-3) of 8.28. Further, the CC50 at 6 days in series [1] was above 10 µM.

In the series with HIV-1 (NL4-3), `Cc1nc2c(c(C)c(C)n2Cc2cnn(C)c2)c(-c2ccc(Cl)cc2)c1[C@H](OC(C)(C)C)C(N)=O` [Example 5, (S)-2-(tert-butoxy)-2-(4-(4-chlorophenyl)-2,3,6-trimethyl-1-((1-methyl-1H-pyrazol-4-yl)methyl)-1H-pyrrolo[2,3-b]pyridin-5-yl)acetamide] gave a pEC50 below 5.00. Also, the CC50 at 6 days in series [1] was above 10 µM.

For the molecule `Cc1nc2c(c(C)c(C)n2Cc2cnn(C)c2)c(-c2ccc(Cl)cc2)c1[C@H](OC(C)(C)C)C(=O)NO` [Example 11, (S)-2-(tert-butoxy)-2-(4-(4-chlorophenyl)-2,3,6-trimethyl-1-((1-methyl-1H-pyrazol-4-yl)methyl)-1H-pyrrolo[2,3-b]pyridin-5-yl)-N-hydroxyacetamide], in series [1], the CC50 at 6 days was 3.16 µM.

Consider `COCCn1c(C)c(C)c2c(-c3ccc(Cl)cc3)c([C@H](OC(C)(C)C)C(=O)OCc3oc(=O)oc3C)c(C)nc21` [Example 3, (5-Methyl-2-oxo-1,3-dioxol-4-yl)methyl (S)-2-(tert-butoxy)-2-(4-(4-chlorophenyl)-1-(2-methoxyethyl)-2,3,6-trimethyl-1H-pyrrolo[2,3-b]pyridin-5-yl)acetate], for which the pEC50 with HIV-1 (NL4-3) is 7.64. Moreover, in series [1], the CC50 at 6 days is above 10 µM.

Molecule `Cc1nc2c(c(C)c(C)n2Cc2cnn(C)c2)c(-c2ccc(Cl)cc2)c1[C@H](OC(C)(C)C)C(=O)Nc1nn[nH]n1` [Example 14, (S)-2-(tert-butoxy)-2-(4-(4-chlorophenyl)-2,3,6-trimethyl-1-((1-methyl-1H-pyrazol-4-yl)methyl)-1H-pyrrolo[2,3-b]pyridin-5-yl)-N-(2H-tetrazol-5-yl)acetamide] gave a pEC50 in the series with HIV-1 (NL4-3) below 5.00. Besides, the CC50 at 6 days in series [1] was above 10 µM.

Turning to `CON(C)C(=O)[C@@H](OC(C)(C)C)c1c(C)nc2c(c(C)c(C)n2Cc2cnn(C)c2)c1-c1ccc(Cl)cc1` [Example 10, (S)-2-(tert-butoxy)-2-(4-(4-chlorophenyl)-2,3,6-trimethyl-1-((1-methyl-1H-pyrazol-4-yl)methyl)-1H-pyrrolo[2,3-b]pyridin-5-yl)-N-methoxy-N-methylacetamide], the pEC50 with HIV-1 (NL4-3) was below 5.00. Moreover, the CC50 at 6 days in series [1] is above 10 µM.

In the case of `Cc1nc2c(c(C)c(C)n2Cc2cnn(C)c2)c(-c2ccc(Cl)cc2)c1[C@H](OC(C)(C)C)c1nnn[nH]1` [Example 7, (S)-5-(tert-butoxy(1H-tetrazol-5-yl)methyl)-4-(4-chlorophenyl)-2,3,6-trimethyl-1-((1-methyl-1H-pyrazol-4-yl)methyl)-1H-pyrrolo[2,3-b]pyridine], in the series on HIV-1 (NL4-3), the pEC50 is 6.44. For the same molecule, the CC50 at 6 days in series [1] is above 10 µM.

In the case of `Cc1nc([C@@H](OC(C)(C)C)c2c(C)nc3c(c(C)c(C)n3Cc3cnn(C)c3)c2-c2ccc(Cl)cc2)no1` [Example 13, (S)-3-(tert-butoxy (4-(4-chlorophenyl)-2,3,6-trimethyl-1-((1-methyl-1-1H-pyrazol-4-yl)methyl)-1H-pyrrolo[2,3-b]pyridin-5-yl)methyl)-5-methyl-1,2,4-oxadiazole], the CC50 with MT-4 cells was above 10 µM.

As to `Cc1nc2c(c(C)c(C)n2Cc2cnn(C)c2)c(-c2ccc(Cl)cc2)c1[C@H](OC(C)(C)C)/C(N)=N/O` [Example 12, (S,Z)-2-(tert-butoxy)-2-(4-(4-chlorophenyl)-2,3,6-trimethyl-1-((1-methyl-1H-pyrazol-4-yl)methyl)-1H-pyrrole[2,3-b]pyridin-5-yl)-N′-hydroxyacetimidamide], in the series on MT-4 cells (MT-4 cells, MTS dye reduction, 6 days incubation, read-out: CC50, HIV-1(NL4-3) in MT-4 Cells), the CC50 is above 10 µM.
